Data as given in ChEMBL document CHEMBL4118246, “Discovery and evaluation of 3,5-disubstituted indole derivatives as Pim kinase inhibitors” (Bioorg Med Chem Lett, 2018).

How the values were obtained:
[1] = target: Serine/threonine-protein kinase pim-1 (Homo sapiens, UniProt P11309)
Description: Inhibition of PIM1 (unknown origin)

[2] = target: Serine/threonine-protein kinase pim-3 (Homo sapiens, UniProt Q86V86); test: Inhibition of PIM3 (unknown origin)
[3] = target: Serine/threonine-protein kinase pim-2 (Homo sapiens, UniProt Q9P1W9); test: Inhibition of PIM2 (unknown origin)
Serine/threonine-protein kinase pim-2, sequence (Q9P1W9 whole entry): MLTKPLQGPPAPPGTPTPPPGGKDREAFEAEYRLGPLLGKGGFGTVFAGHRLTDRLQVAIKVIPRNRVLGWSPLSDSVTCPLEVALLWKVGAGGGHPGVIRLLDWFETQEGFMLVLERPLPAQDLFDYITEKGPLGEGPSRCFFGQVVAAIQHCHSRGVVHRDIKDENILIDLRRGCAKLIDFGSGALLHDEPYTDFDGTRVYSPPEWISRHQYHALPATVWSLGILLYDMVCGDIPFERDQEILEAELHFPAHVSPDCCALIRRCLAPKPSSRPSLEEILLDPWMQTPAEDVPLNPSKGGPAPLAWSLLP

[4] = tested on: MV4-11; test: Growth inhibition of human MV4-11 cells; type: functional, cell-based
[5] = tested on: HepG2; test: Cell cycle arrest in human HepG2 cells assessed as accumulation at G2/M phase at 1 uM by FACS analysis relative to control; type: functional
[6] = tested on: HepG2; test: Cell cycle arrest in human HepG2 cells assessed as accumulation at G0/G1 phase at 10 uM by FACS analysis relative to control; type: functional
[7] = tested on: HepG2; test: Cell cycle arrest in human HepG2 cells assessed as accumulation at sub-G1 phase at 10 uM by FACS analysis relative to control; type: functional
[8] = tested on: HepG2; test: Cell cycle arrest in human HepG2 cells assessed as accumulation at G2/M phase at 10 uM by FACS analysis relative to control; type: functional
[9] = tested on: HepG2; test: Cell cycle arrest in human HepG2 cells assessed as accumulation at S phase at 1 uM by FACS analysis relative to control; type: functional
[10] = tested on: HepG2; test: Cell cycle arrest in human HepG2 cells assessed as accumulation at G0/G1 phase at 1 uM by FACS analysis relative to control; type: functional
[11] = tested on: HepG2; test: Cell cycle arrest in human HepG2 cells assessed as accumulation at sub-G1 phase at 1 uM by FACS analysis relative to control; type: functional
[12] = tested on: HepG2; test: Cell cycle arrest in human HepG2 cells assessed as accumulation at S phase at 10 uM by FACS analysis relative to control; type: functional

Serine/threonine-protein kinase pim-1, sequence (P11309 whole entry): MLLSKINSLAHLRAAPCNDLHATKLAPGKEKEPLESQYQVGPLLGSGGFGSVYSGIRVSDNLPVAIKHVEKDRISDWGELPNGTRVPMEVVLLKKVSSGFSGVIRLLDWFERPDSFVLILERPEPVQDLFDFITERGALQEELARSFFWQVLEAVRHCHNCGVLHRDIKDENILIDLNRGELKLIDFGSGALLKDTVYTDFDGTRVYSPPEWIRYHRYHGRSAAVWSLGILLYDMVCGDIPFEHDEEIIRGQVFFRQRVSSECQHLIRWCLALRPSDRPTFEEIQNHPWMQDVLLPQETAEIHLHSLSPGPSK

SMILES	IC50 [1]	IC50 [2]	IC50 [3]	further results
CN(C)CCNc1cncc(-c2ccc3[nH]cc(-c4ccnc(N)n4)c3c2)n1	3 nM	7 nM		
NCCNc1cncc(-c2ccc3[nH]cc(-c4ccccc4F)c3c2)n1	5 nM	7 nM	230 nM	
CC(=O)c1ccc(F)c(-c2c[nH]c3ccc(-c4cncc(NCCN(C)C)n4)cc23)c1	3 nM	7 nM	220 nM	IC50 [4]: 6300 nM
CN(C)CCNc1cncc(-c2ccc3[nH]cc(-c4cccc(N)c4)c3c2)n1	19 nM	40 nM	820 nM	
CN(C)CCNc1cncc(-c2ccc3[nH]cc(-c4ccc(C(F)(F)F)cc4)c3c2)n1	67 nM	247 nM	5800 nM	
CN(C)CCNc1cncc(-c2ccc3[nH]cc(-c4ccc(C(F)(F)F)c(F)c4)c3c2)n1	256 nM	589 nM	7950 nM	
OCCc1cncc(-c2ccc3[nH]cc(-c4ccccc4F)c3c2)n1	885 nM	3050 nM	> 10000 nM	
Fc1ccccc1-c1c[nH]c2ccc(-c3cncc(N4CCCNCC4)n3)cc12	12 nM	16 nM	537 nM	
CN(C)CCNc1cncc(-c2ccc3[nH]cc(-c4ccc(C#N)cc4)c3c2)n1	33 nM	155 nM	2540 nM	
CN(C)CCNc1cncc(-c2ccc3[nH]cc(-c4ccc(N)c(C#N)c4)c3c2)n1	5 nM	10 nM	259 nM	Activity [5]: 16.5%; Activity [6]: 53%; IC50 [4]: 800 nM; Activity [7]: 2.6%; Activity [8]: 15.8%; Activity [9]: 21.7%; Activity [10]: 52.3%; Activity [11]: 3.4%; Activity [12]: 23.1%
CN(C)CCNc1cncc(-c2ccc3[nH]cc(-c4ccc(F)c(C(F)(F)F)c4)c3c2)n1	144 nM	183 nM	4320 nM	
CN(C)CCCOc1cncc(-c2ccc3[nH]cc(-c4ccc(C(F)(F)F)cc4)c3c2)n1	307 nM	905 nM	> 10000 nM	
CN(C)CCNc1cncc(-c2ccc3[nH]cc(-c4cccc(C(F)(F)F)c4)c3c2)n1	35 nM	69 nM	2260 nM	
CN(C)CCNc1cncc(-c2ccc3[nH]cc(-c4ccccc4F)c3c2)n1	7 nM	10 nM	370 nM	
Brc1ccc2[nH]cc(-c3ccccc3)c2c1	> 10000 nM			
CN(C)CCN(C)c1cncc(-c2ccc3[nH]cc(-c4ccc(C(F)(F)F)cc4)c3c2)n1	313 nM	401 nM	> 10000 nM	
CN(C)CCNc1cncc(-c2ccc3[nH]cc(-c4ccc(S(N)(=O)=O)cc4)c3c2)n1	9 nM	26 nM	700 nM	Activity [5]: 15.3%; Activity [6]: 58%; IC50 [4]: 6800 nM; Activity [7]: 2.4%; Activity [8]: 14.6%; Activity [9]: 21.3%; Activity [10]: 55.5%; Activity [11]: 2.4%; Activity [12]: 19.8%
O=C1NCCN1c1cncc(-c2ccc3[nH]cc(-c4ccccc4F)c3c2)n1	257 nM	273 nM	> 10000 nM	
CN(C)CCNc1cncc(-c2ccc3[nH]cc(-c4cccc(F)c4F)c3c2)n1	9 nM	22 nM	645 nM	Activity [5]: 16.2%; Activity [6]: 22.6%; IC50 [4]: 2600 nM; Activity [7]: 74.2%; Activity [8]: 0%; Activity [9]: 19.2%; Activity [10]: 56%; Activity [11]: 2.8%; Activity [12]: 3.2%
CN(C)CCNc1cncc(-c2ccc3[nH]cc(-c4cc(C#N)ccc4F)c3c2)n1	9 nM	18 nM	841 nM	Activity [5]: 17%; Activity [6]: 37.6%; IC50 [4]: 2900 nM; Activity [7]: 5.7%; Activity [8]: 19%; Activity [9]: 20.6%; Activity [10]: 53.5%; Activity [11]: 2.4%; Activity [12]: 28.3%
COc1cccc(-c2c[nH]c3ccc(-c4cncc(NCCN(C)C)n4)cc23)c1	7 nM	19 nM	560 nM	

SMILES	IC50 [1]	IC50 [2]	IC50 [3]	further results
CN(C)CCCNc1cncc(-c2ccc3[nH]cc(-c4ccc(C(F)(F)F)cc4)c3c2)n1	195 nM	368 nM	> 10000 nM	
CN(C)CCNc1cncc(-c2ccc3[nH]cc(-c4cccc(C#N)c4)c3c2)n1	21 nM	60 nM	770 nM	
CCOc1cncc(-c2ccc3[nH]cc(-c4ccccc4)c3c2)n1	> 10000 nM	> 10000 nM	> 10000 nM	
CN(C)CCNc1cncc(-c2ccc3[nH]cc(-c4cccc(OC(F)(F)F)c4)c3c2)n1	134 nM	128 nM	2780 nM	
CN(C)CCNc1cncc(-c2ccc3[nH]cc(-c4cccc(F)c4)c3c2)n1	30 nM	35 nM	650 nM	
FC(F)(F)c1ccc(-c2c[nH]c3ccc(-c4cncc(N5CCNCC5)n4)cc23)cc1	260 nM	241 nM	2120 nM	
CN(C)CCNc1cncc(-c2ccc3[nH]cc(-c4ccc(N)cc4F)c3c2)n1	3 nM	9 nM	267 nM	IC50 [4]: 1700 nM
CN(C)CCNc1cncc(-c2ccc3[nH]cc(-c4ccc(S(C)(=O)=O)cc4)c3c2)n1	21 nM	50 nM	2160 nM	Activity [5]: 19.3%; Activity [6]: 52.5%; IC50 [4]: 7300 nM; Activity [7]: 2.7%; Activity [8]: 17.9%; Activity [9]: 20.7%; Activity [10]: 51.7%; Activity [11]: 1.6%; Activity [12]: 20.9%
CN(C)CCOc1cncc(-c2ccc3[nH]cc(-c4ccc(C(F)(F)F)cc4)c3c2)n1	443 nM	877 nM	> 10000 nM	
CN(C)CCNc1cncc(-c2ccc3[nH]cc(-c4ccc(OC(F)(F)F)cc4)c3c2)n1	96 nM	236 nM	4440 nM	
COc1ccc(-c2c[nH]c3ccc(-c4cncc(NCCN(C)C)n4)cc23)cc1	9 nM	30 nM	870 nM	
CN(C)CCNc1cncc(-c2ccc3[nH]cc(-c4ccc(F)cc4)c3c2)n1	22 nM	82 nM	1620 nM	
NC1CCCN(c2cncc(-c3ccc4[nH]cc(-c5ccccc5F)c4c3)n2)C1 (stereo unspecified)	7 nM	11 nM	1380 nM	
FC(F)(F)c1ccc(-c2c[nH]c3ccc(-c4cncc(OC5CCNCC5)n4)cc23)cc1	187 nM	204 nM	4350 nM	
CN(C)CCNc1cncc(-c2ccc3[nH]cc(-c4ccc(N)cc4)c3c2)n1	8 nM	29 nM	460 nM	
CN(C)CCNc1cncc(-c2ccc3[nH]cc(-c4cc(C(=O)O)ccc4F)c3c2)n1	23 nM	137 nM	1430 nM	
CN(C)CCCN(C)c1cncc(-c2ccc3[nH]cc(-c4ccc(C(F)(F)F)cc4)c3c2)n1	209 nM	475 nM	> 10000 nM	
Cc1ccc(-c2c[nH]c3ccc(-c4cncc(NCCN(C)C)n4)cc23)cc1	19 nM	33 nM	1800 nM	
Cc1cccc(-c2c[nH]c3ccc(-c4cncc(NCCN(C)C)n4)cc23)c1	21 nM	29 nM	830 nM	
CN(C)CCNc1cncc(-c2ccc3[nH]cc(-c4ccc(-c5ccccc5)cc4)c3c2)n1	160 nM	417 nM	5330 nM	
CN1CCC(CNc2ccc3ncc(-c4cccc(OC(F)(F)F)c4)n3n2)CC1 [SGI-1776]				Activity [5]: 13.3%; Activity [6]: 36.9%; IC50 [4]: 30 nM; Activity [7]: 52.3%; Activity [8]: 1.9%; Activity [9]: 19.8%; Activity [10]: 44.2%; Activity [11]: 16%; Activity [12]: 8.3%
